Our source for the residual activity, inhibition and percent of control values is ChEMBL document CHEMBL5696442, “Discovery of type II inhibitors of TGFβ-activated kinase 1 (TAK1) and mitogen-activated protein kinase kinase kinase kinase 2 (MAP4K2)” (J Med Chem, 2015).

The target in assay [1] is 3-phosphoinositide-dependent protein kinase 1 (Homo sapiens) (UniProt O15530). Nature of the assay: Inhibition of PDPK1 (unknown origin) at 1 uM by Ambit Kinomescan binding assay relative to control; values are per cent of control.
Assay [2] has as its target T1, Scaffold protein ILK (Homo sapiens) (UniProt Q13418).
T1 sequence (whole entry): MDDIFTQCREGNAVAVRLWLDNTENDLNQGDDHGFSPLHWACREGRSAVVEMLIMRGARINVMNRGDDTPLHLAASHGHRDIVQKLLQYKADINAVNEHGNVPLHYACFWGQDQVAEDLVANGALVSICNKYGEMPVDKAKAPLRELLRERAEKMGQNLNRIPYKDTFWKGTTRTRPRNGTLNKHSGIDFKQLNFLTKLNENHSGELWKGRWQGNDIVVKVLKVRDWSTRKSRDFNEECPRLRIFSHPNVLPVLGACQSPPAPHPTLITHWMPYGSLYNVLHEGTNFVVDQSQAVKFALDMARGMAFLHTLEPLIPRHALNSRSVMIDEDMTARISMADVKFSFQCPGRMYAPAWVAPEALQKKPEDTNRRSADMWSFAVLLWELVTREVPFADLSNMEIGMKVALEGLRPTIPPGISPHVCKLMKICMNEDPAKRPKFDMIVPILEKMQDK
Nature of the assay: Inhibition of ILK Lys1 labeling site in human A-375 cells at 0.05 uM by KiNativ Profiling analysis relative to control. Type of assay: cell-based.

Assay [3] has as its target T2, Receptor-interacting serine/threonine-protein kinase 4 (Homo sapiens) (UniProt P57078).
T2 sequence (whole entry): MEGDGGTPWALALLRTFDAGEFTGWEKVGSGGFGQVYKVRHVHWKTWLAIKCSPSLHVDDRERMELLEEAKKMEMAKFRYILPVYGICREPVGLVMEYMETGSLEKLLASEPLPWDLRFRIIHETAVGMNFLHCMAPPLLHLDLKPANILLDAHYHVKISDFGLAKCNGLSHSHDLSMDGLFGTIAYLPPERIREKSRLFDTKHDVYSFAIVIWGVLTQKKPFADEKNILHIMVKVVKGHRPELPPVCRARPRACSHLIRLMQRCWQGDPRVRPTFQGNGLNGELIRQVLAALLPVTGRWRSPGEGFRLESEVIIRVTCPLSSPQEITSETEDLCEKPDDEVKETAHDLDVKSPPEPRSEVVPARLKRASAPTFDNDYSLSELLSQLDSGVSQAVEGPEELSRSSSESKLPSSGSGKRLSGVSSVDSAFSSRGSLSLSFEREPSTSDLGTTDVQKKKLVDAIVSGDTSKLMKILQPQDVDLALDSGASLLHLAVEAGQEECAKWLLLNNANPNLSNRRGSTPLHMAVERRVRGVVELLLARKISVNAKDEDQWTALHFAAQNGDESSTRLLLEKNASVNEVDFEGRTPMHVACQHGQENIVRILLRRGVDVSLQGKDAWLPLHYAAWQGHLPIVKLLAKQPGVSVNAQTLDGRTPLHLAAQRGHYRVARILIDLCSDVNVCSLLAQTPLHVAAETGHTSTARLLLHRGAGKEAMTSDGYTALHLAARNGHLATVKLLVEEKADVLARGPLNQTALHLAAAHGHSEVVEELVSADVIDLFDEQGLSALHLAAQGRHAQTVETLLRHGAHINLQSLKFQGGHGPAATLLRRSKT
The assay can be described thus: Inhibition of ANKRD3 Lys1 labeling site in human A-375 cells at 5 uM by KiNativ Profiling analysis relative to control. Type of assay: cell-based.

The nature of assay [4]: Inhibition of KHS1 K2 labeling site in human Huh-7 cells at 10 uM by KiNativ Profiling analysis relative to control. The conditions noted are these: condition cancer.
The target of assay [5] is MAP/microtubule affinity-regulating kinase 3 (Homo sapiens) (UniProt P27448). The assay can be described thus: Inhibition of MARK3 K1 labeling site in human Huh-7 cells at 1 uM by KiNativ Profiling analysis relative to control. The assay is classed as cell-based.
Assay [6] deals with Serine/threonine-protein kinase ATR (Homo sapiens) (UniProt Q13535). Nature of the assay: Inhibition of ATR ATP labeling site in human Huh-7 cells at 10 uM by KiNativ Profiling analysis relative to control. The assay is classed as cell-based.
For assay [7], the target named is T3, Inhibitor of nuclear factor kappa-B kinase subunit alpha (Homo sapiens) (UniProt O15111).
T3 sequence (whole entry): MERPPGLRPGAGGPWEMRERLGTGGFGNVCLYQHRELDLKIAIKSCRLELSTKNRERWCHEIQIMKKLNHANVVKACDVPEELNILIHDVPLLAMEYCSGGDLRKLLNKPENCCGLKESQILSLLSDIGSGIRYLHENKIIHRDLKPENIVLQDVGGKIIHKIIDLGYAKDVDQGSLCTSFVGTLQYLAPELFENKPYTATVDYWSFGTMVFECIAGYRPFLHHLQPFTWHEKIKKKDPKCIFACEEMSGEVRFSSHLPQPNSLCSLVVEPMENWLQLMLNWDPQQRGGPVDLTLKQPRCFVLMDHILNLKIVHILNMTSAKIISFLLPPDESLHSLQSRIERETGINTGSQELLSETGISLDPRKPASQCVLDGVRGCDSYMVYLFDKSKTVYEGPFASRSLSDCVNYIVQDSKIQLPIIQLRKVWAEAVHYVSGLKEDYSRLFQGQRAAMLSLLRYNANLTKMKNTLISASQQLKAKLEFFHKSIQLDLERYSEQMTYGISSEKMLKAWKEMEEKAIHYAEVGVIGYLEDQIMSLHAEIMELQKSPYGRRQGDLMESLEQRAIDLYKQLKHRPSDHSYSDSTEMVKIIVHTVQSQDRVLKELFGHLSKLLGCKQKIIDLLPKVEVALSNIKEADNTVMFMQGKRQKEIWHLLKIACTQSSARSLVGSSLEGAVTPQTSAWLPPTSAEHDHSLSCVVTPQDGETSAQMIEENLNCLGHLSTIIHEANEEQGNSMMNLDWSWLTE
The assay can be described thus: Inhibition of IKK-alpha (unknown origin) at 10 uM by Ambit Kinomescan binding assay relative to control; values are per cent of control.

For assay [8], the target named is Casein kinase I isoform epsilon (Homo sapiens) (UniProt P49674). The assay can be described thus: Inhibition of CK1epsilon Lys2 labeling site in human A-375 cells at 0.5 uM by KiNativ Profiling analysis relative to control. Type of assay: cell-based.
The next assay has as its system MEF. The assay can be described thus: Inhibition of IL-1alpha induced p38 phosphorylation level in mouse MEF cells preincubated for 1 hr followed by IL-1 alpha stimulation and measured after 30 mins by Western blot analysis. Type of assay: functional, cell-based. The conditions noted are these: dose 0.01-10 µM. (In western blotting, separated proteins are transferred to a membrane and probed.)

In assay [9] the target is Tyrosine-protein kinase CSK (Homo sapiens, UniProt P41240). Nature of the assay: Inhibition of CSK ACT labeling site harbouring VSDFGLTKEASSTQDTGK in human A-375 cells at 0.05 uM by KiNativ Profiling analysis relative to control. The assay is classed as cell-based.
Assay [10] deals with Serine/threonine-protein kinase WNK1 (Homo sapiens) (UniProt Q9H4A3). Nature of the assay: Inhibition of Wnk1 ACT labeling site in human Huh-7 cells at 1 uM by KiNativ Profiling analysis relative to control. Type of assay: cell-based.
Sequence of Serine/threonine-protein kinase WNK1 (Homo sapiens) (Q9H4A3 whole entry, looked up): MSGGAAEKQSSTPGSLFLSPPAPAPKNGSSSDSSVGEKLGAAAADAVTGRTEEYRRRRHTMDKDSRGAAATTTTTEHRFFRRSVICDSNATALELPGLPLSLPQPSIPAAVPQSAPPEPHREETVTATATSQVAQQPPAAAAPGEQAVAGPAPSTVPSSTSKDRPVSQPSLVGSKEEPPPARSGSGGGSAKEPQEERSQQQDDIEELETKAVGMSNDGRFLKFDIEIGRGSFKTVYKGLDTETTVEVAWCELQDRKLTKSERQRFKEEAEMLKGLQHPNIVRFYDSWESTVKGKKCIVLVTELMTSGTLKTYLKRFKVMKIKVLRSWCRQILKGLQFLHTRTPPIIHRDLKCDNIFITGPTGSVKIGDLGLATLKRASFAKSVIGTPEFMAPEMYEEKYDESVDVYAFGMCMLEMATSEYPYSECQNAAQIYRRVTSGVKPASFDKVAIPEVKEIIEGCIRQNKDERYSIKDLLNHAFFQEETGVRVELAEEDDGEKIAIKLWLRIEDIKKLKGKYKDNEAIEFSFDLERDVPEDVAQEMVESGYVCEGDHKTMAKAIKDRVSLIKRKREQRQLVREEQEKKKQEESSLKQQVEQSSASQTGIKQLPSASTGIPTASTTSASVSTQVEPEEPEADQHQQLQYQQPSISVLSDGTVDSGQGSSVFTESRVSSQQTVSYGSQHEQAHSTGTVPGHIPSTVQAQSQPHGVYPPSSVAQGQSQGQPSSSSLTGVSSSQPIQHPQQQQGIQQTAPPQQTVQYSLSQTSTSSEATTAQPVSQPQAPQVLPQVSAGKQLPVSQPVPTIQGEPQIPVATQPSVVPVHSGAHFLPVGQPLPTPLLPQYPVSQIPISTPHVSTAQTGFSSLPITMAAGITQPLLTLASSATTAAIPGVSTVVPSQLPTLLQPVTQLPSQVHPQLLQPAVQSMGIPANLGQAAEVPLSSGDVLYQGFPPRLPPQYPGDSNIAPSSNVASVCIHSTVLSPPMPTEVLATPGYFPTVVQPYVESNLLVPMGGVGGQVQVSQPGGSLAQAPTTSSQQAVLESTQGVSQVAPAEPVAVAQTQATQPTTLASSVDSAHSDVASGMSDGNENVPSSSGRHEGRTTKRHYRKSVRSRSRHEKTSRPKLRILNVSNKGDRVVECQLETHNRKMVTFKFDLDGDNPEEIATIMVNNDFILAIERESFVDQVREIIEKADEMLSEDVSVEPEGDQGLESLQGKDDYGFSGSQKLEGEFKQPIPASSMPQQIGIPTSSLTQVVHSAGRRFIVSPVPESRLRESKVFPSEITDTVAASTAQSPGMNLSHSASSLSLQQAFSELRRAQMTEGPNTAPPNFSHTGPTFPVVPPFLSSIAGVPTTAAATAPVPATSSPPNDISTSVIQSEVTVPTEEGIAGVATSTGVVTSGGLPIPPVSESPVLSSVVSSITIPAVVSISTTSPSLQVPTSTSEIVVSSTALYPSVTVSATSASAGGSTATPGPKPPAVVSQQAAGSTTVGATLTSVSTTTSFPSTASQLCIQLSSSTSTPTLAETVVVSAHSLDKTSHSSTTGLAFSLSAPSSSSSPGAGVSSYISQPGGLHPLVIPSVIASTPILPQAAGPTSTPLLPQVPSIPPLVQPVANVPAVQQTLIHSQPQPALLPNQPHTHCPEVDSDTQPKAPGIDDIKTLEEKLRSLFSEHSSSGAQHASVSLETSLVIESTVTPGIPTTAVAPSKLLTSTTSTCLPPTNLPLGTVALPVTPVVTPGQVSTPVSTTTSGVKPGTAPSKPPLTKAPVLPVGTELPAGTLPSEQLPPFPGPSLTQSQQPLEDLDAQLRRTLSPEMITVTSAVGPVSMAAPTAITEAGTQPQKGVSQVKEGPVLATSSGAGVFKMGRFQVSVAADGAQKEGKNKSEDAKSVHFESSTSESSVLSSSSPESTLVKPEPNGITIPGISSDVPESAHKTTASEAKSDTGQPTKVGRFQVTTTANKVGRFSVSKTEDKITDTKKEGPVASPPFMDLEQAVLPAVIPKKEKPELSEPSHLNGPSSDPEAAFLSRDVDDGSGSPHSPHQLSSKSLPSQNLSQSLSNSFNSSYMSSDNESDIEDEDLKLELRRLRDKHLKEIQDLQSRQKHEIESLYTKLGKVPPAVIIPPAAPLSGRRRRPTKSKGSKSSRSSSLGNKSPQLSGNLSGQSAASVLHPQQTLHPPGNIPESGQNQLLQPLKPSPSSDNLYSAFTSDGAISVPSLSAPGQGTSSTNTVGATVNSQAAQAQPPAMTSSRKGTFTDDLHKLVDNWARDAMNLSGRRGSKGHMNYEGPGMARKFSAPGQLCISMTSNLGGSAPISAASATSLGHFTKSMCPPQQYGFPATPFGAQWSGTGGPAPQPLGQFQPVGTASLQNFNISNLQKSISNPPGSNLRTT

Sequence of Tyrosine-protein kinase CSK (P41240 2-450 limits assumed): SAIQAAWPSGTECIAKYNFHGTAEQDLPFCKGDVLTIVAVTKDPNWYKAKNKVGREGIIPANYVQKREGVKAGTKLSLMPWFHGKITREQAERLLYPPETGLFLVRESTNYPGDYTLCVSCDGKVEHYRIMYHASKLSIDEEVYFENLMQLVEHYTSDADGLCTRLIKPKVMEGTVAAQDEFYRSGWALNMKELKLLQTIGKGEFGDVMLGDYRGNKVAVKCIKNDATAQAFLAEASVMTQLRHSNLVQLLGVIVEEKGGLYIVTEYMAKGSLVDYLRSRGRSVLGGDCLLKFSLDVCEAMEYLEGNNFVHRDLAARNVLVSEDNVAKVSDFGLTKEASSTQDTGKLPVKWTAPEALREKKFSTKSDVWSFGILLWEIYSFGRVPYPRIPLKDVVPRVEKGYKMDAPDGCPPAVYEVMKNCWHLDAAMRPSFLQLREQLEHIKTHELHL
Sequence of MAP/microtubule affinity-regulating kinase 3 (Homo sapiens) (P27448 whole entry, looked up): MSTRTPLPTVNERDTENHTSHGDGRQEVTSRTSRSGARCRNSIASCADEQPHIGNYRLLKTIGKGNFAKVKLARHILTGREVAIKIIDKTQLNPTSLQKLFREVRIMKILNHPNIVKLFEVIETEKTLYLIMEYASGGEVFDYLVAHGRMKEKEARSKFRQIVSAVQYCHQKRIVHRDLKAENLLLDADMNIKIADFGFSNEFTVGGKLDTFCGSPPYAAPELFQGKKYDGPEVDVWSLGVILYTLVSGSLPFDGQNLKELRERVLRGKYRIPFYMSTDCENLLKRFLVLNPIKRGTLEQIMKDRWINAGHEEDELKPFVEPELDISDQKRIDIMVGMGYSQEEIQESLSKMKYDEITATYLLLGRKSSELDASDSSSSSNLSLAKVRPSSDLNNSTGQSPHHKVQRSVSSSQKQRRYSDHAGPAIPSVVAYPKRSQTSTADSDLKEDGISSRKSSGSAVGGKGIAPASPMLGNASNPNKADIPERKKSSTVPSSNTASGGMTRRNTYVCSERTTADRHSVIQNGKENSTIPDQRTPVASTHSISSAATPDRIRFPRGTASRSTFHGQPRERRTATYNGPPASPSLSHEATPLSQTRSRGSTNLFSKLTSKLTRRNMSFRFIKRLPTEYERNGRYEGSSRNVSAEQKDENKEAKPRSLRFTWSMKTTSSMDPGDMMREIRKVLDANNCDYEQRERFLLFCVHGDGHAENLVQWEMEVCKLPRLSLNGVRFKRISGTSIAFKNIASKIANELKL
Sequence of 3-phosphoinositide-dependent protein kinase 1 (Homo sapiens) (O15530 whole entry): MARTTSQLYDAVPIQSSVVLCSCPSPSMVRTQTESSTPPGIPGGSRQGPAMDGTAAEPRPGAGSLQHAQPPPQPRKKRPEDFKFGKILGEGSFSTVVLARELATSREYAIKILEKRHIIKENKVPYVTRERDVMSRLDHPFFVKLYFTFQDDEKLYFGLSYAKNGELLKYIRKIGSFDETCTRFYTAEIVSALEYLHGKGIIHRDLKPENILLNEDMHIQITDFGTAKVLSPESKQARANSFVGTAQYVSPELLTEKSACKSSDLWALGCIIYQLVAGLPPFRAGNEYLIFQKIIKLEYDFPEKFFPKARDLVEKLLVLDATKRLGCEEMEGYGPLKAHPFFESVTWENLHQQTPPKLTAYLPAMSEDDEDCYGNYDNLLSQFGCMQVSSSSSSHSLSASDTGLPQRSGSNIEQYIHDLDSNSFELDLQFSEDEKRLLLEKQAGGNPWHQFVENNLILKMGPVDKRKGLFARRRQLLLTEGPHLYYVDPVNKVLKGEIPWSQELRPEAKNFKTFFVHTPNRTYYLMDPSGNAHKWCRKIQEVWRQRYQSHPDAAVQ
Sequence of Casein kinase I isoform epsilon (Homo sapiens) (P49674 whole entry, looked up, canonical isoform): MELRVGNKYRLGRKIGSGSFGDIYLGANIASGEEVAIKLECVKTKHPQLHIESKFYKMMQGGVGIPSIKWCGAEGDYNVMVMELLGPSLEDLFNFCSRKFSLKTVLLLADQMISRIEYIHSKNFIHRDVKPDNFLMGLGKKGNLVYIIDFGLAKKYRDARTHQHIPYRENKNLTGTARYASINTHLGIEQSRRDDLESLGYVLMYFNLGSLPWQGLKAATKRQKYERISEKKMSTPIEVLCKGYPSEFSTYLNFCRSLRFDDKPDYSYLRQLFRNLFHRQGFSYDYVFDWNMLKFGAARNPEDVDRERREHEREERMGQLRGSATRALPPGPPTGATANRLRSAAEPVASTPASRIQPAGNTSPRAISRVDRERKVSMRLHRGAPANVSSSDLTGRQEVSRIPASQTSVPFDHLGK

One may read the residual activity as what remains of the control signal, in per cent. One may read the inhibition as the share of the control response that was lost under treatment. With `CCN1CCN(Cc2ccc(NC(=O)c3ccc(C)c(/C=C/c4cnc5[nH]ccc5c4OC)c3)cc2C(F)(F)F)CC1`, the residual activity in assay [1] amounted to 100%. In addition, the inhibition in [2] was found to be 3.9%; in [3], 17%.

With `CCN1CCN(Cc2ccc(NC(=O)c3ccc(C)c(Oc4ccnc5[nH]ccc45)c3)cc2C(F)(F)F)CC1`, in assay [4], the inhibition at 10 µM came to 0.3%. In addition, the inhibition in assay [5] was 5%; in [6], 19.8%; in [8] it was 3.3%; with MEF it was “Dose-Dependent Effect”; in assay [9], 23.1%. This compound displayed a percent of control in assay [7] of 0.95%.

`CNc1cc(Oc2cc(C(=O)Nc3cc(N4CCN(C)CC4)cc(C(F)(F)F)c3)ccc2C)ncn1`: the inhibition in [10] was 21.6%.
